Several values for one entry are separate records, joined by “and”; a condition that tells them apart may be missing. Equal values may be shown once.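 Growth conditions: 96-well plates. Treatment: test compound, 48 hours, 5 concentrations. Analysis: linear interpolation between bracketing concentrations; unreached endpoints set to highest concentration. GI50 marks 50% less growth. The concentration for full growth arrest is given as TGI.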
Tested on: KM12 colon
Test: NCI anticancer screen, dose series, 48 h

Row | Structure (SMILES) | TGI | GI50
1 | CN(C)CC(CC1=C(CC(CN(C)C)N(C)C)CCC1)N(C)C (stereo not drawn) | > 100 µM | 
2 | CCC1CN(C(=O)c2ccccc2)C(Cc2c[nH]c3ccccc23)C(=O)C1CC(=O)OC (stereo not drawn) | > 100 µM | 
3 | CC12CC3OC(=O)C1COC14OC5(C2C1=O)C(O)(CCC1C4CC(O)C2(O)CC=CC(=O)C12C)C(=O)OC35C (stereo not drawn) | > 100 µM | 
4 | NC(=O)c1c(NC(=O)c2ccccn2)sc2c1CCC(=O)C2 | > 100 µM | 3.26 µM
5 | COc1ccc(C(=O)/C=C/c2cccc([N+](=O)[O-])c2)c(OC)c1 | 7.65 µM | 1.61 µM
6 | CCOC(=O)C(NC(=O)c1ccco1)(Nc1nc2ccc(OCC)cc2s1)C(F)(F)F (stereo not drawn) | 98.3 µM | 
7 | CCC(C)C1=C(OC(C)=O)[N+]2([O-])Oc3ccc(-c4c(OC(C)=O)c(OC(C)=O)c(-c5ccc(OC(C)=O)cc5)c(OC(C)=O)c4OC(C)=O)cc3OC2(C(C)CC)C(=O)N1OC(C)=O (stereo not drawn) | > 50 µM | 
8 | O=C(O)C1C2CCC(O2)C1C(=O)Nc1cccc2cccnc12 (stereo not drawn) | > 100 µM | 
9 | COc1cccc2c1Cc1cc(-c3ccccc3)[n+](C)n1-2 | 34.3 µM | 
10 | O=C(OCN1C(=O)C2C3C=CC(C2C1=O)C1C2C(=O)N(COC(=O)C4CCCN4)C(=O)C2C31)C1CCCN1 (stereo not drawn) | > 100 µM | 
11 | O=C(C[n+]1ccc2ccccc2c1)c1ccc2ccc3ccccc3c2c1 | 11.5 µM | 
12 | NCCCCc1cc(O)c2c(c1O)C(=O)c1ccccc1C2=O | 24.2 µM | 
13 | Cc1ccccc1C(=O)N/N=C/c1ccc(Sc2nccn2C)c([N+](=O)[O-])c1 | > 100 µM | 
14 | CCn1c(-c2ccc(N=NNc3ccc(-c4n[nH]c(=S)n4CC)cc3)cc2)n[nH]c1=S | 5.93 µM | 
15 | CC(=O)C1=C(C)N(c2ccc(C)cc2)C2(O)C=CC(=O)C3C(=O)N(c4ccccc4)C(=O)C132 (stereo not drawn) | 74.2 µM | 
16 | COc1ccc2c(c1)[nH]c1c(/C=C/c3ccccc3)nccc12 | 41.2 µM | 
17 | Clc1cc2c(cc1Cl)CC(NCCN1CCCC1)CC2 (stereo not drawn) | 32.3 µM | 
18 | [N-]=[N+]=CC(=O)c1ccccc1C#CCCc1ccccc1 | > 100 µM | 
19 | CCN(CC(=O)O)C(=O)c1cccnc1 | > 100 µM | 
20 | NCCSC(c1ccccc1)c1ccccc1 | 35.6 µM | 
21 | CCCCCCCCC/C=C/C=C/C(=O)NCC(=O)NC1C(O)C(O)C(Nc2ncnc3nc[nH]c23)OC1C(O)CO (stereo not drawn) | 0.608 µM | 0.0013 µM
22 | COc1nc(C#CC2(O)CCCCC2)nc(OC)n1 | 30.2 µM | 
23 | C[C@H](CCC(=O)O)[C@H]1CC[C@@]2(C)[C@@H]3C(=O)C[C@H]4C(C)(C)[C@@H](O)CC[C@]4(C)[C@H]3C(=O)C[C@]12C | > 100 µM | 

Tested on: SNB-75 CNS
Test: NCI anticancer screen, dose series, 48 h

Row | Structure (SMILES) | TGI | GI50
24 | CCOC(=O)C1=NN(c2ccc(C)cc2)C2=CC(C)=NN(C)C(=S)N21 | > 100 µM | 
25 | O=C(c1cccs1)N(C(=S)OC12CC3CC(CC(C3)C1)C2)c1ccccc1 | > 100 µM | 
26 | C(=N\NC1=NCCN1)/c1ccc(-c2cn3cc(/C=N/NC4=NCCN4)ccc3n2)cc1 | > 100 µM | 
27 | CC1CC[C@@]2(OC1)OC1C[C@H]3[C@@H]4CC=C5CC(OC6OC(CO)C(OC7OC(CO)C(O)C(OC8OCC(O)C(O)C8O)C7OC7OC(CO)C(O)C(O)C7O)C(O)C6O)CCC5(C)[C@H]4CCC3(C)C1[C@@H]2C (stereo partly drawn) | 13.7 µM | 
28 | Nc1ccccc1S(=O)(=O)c1ccccc1 | > 100 µM | 
29 | COc1cc2c(ccc3c4cc(OC)c(OC)cc4c[n+](C)c23)cc1O | 16.4 µM | 
30 | CNC(=O)OCc1c(CO)nc(SC)n1C | > 100 µM | 
31 | CN(C)CC(CC1=C(CC(CN(C)C)N(C)C)CCC1)N(C)C (stereo not drawn) | > 100 µM | 
32 | CCC1CN(C(=O)c2ccccc2)C(Cc2c[nH]c3ccccc23)C(=O)C1CC(=O)OC (stereo not drawn) | > 100 µM | 
33 | CC12CC3OC(=O)C1COC14OC5(C2C1=O)C(O)(CCC1C4CC(O)C2(O)CC=CC(=O)C12C)C(=O)OC35C (stereo not drawn) | > 100 µM | 
34 | COc1ccc(C(=O)/C=C/c2cccc([N+](=O)[O-])c2)c(OC)c1 | > 50 µM | 1.61 µM
35 | CCOC(=O)C(NC(=O)c1ccco1)(Nc1nc2ccc(OCC)cc2s1)C(F)(F)F (stereo not drawn) | 70.7 µM | 
36 | CCC(C)C1=C(OC(C)=O)[N+]2([O-])Oc3ccc(-c4c(OC(C)=O)c(OC(C)=O)c(-c5ccc(OC(C)=O)cc5)c(OC(C)=O)c4OC(C)=O)cc3OC2(C(C)CC)C(=O)N1OC(C)=O (stereo not drawn) | 42.3 µM | 
37 | O=C(O)C1C2CCC(O2)C1C(=O)Nc1cccc2cccnc12 (stereo not drawn) | > 100 µM | 
38 | COc1cccc2c1Cc1cc(-c3ccccc3)[n+](C)n1-2 | 58.6 µM | 
39 | O=C(OCN1C(=O)C2C3C=CC(C2C1=O)C1C2C(=O)N(COC(=O)C4CCCN4)C(=O)C2C31)C1CCCN1 (stereo not drawn) | > 100 µM | 
40 | O=C(C[n+]1ccc2ccccc2c1)c1ccc2ccc3ccccc3c2c1 | 18.5 µM | 
41 | Cc1ccccc1C(=O)N/N=C/c1ccc(Sc2nccn2C)c([N+](=O)[O-])c1 | > 100 µM | 
42 | CCn1c(-c2ccc(N=NNc3ccc(-c4n[nH]c(=S)n4CC)cc3)cc2)n[nH]c1=S | 6.92 µM | 
43 | CC(=O)C1=C(C)N(c2ccc(C)cc2)C2(O)C=CC(=O)C3C(=O)N(c4ccccc4)C(=O)C132 (stereo not drawn) | 50.5 µM | 
44 | COc1ccc2c(c1)[nH]c1c(/C=C/c3ccccc3)nccc12 | 32.3 µM | 
45 | [N-]=[N+]=CC(=O)c1ccccc1C#CCCc1ccccc1 | 61.4 µM | 
46 | CCN(CC(=O)O)C(=O)c1cccnc1 | > 100 µM | 
47 | NCCSC(c1ccccc1)c1ccccc1 | 79.9 µM | 
48 | CCCCCCCCC/C=C/C=C/C(=O)NCC(=O)NC1C(O)C(O)C(Nc2ncnc3nc[nH]c23)OC1C(O)CO (stereo not drawn) | 0.018 µM and 0.0703 µM | 0.00184 µM
49 | COc1nc(C#CC2(O)CCCCC2)nc(OC)n1 | 40.3 µM | 
50 | C[C@H](CCC(=O)O)[C@H]1CC[C@@]2(C)[C@@H]3C(=O)C[C@H]4C(C)(C)[C@@H](O)CC[C@]4(C)[C@H]3C(=O)C[C@]12C | > 100 µM | 

Tested on: HL-60(TB) leukemia
Test: NCI anticancer screen, dose series, 48 h

Row | Structure (SMILES) | TGI
51 | CCOC(=O)C1=NN(c2ccc(C)cc2)C2=CC(C)=NN(C)C(=S)N21 | > 100 µM
52 | O=C(c1cccs1)N(C(=S)OC12CC3CC(CC(C3)C1)C2)c1ccccc1 | 72.5 µM
53 | C(=N\NC1=NCCN1)/c1ccc(-c2cn3cc(/C=N/NC4=NCCN4)ccc3n2)cc1 | 19.7 µM
54 | CC1CC[C@@]2(OC1)OC1C[C@H]3[C@@H]4CC=C5CC(OC6OC(CO)C(OC7OC(CO)C(O)C(OC8OCC(O)C(O)C8O)C7OC7OC(CO)C(O)C(O)C7O)C(O)C6O)CCC5(C)[C@H]4CCC3(C)C1[C@@H]2C (stereo partly drawn) | 9.35 µM
55 | Nc1ccccc1S(=O)(=O)c1ccccc1 | > 100 µM
56 | Cc1c(N2C(=O)CS(=O)(=O)C2c2cccc(Oc3ccccc3)c2)c(=O)n(-c2ccccc2)n1C (stereo not drawn) | 53.4 µM
57 | COc1cc2c(ccc3c4cc(OC)c(OC)cc4c[n+](C)c23)cc1O | > 75 µM
58 | CNC(=O)OCc1c(CO)nc(SC)n1C | > 100 µM
59 | CN(C)CC(CC1=C(CC(CN(C)C)N(C)C)CCC1)N(C)C (stereo not drawn) | > 100 µM
60 | CCC1CN(C(=O)c2ccccc2)C(Cc2c[nH]c3ccccc23)C(=O)C1CC(=O)OC (stereo not drawn) | > 100 µM
61 | CC12CC3OC(=O)C1COC14OC5(C2C1=O)C(O)(CCC1C4CC(O)C2(O)CC=CC(=O)C12C)C(=O)OC35C (stereo not drawn) | > 100 µM
62 | CCOC(=O)C(NC(=O)c1ccco1)(Nc1nc2ccc(OCC)cc2s1)C(F)(F)F (stereo not drawn) | > 100 µM
63 | CCC(C)C1=C(OC(C)=O)[N+]2([O-])Oc3ccc(-c4c(OC(C)=O)c(OC(C)=O)c(-c5ccc(OC(C)=O)cc5)c(OC(C)=O)c4OC(C)=O)cc3OC2(C(C)CC)C(=O)N1OC(C)=O (stereo not drawn) | 19.7 µM
64 | COc1cccc2c1Cc1cc(-c3ccccc3)[n+](C)n1-2 | 44.9 µM
65 | O=C(OCN1C(=O)C2C3C=CC(C2C1=O)C1C2C(=O)N(COC(=O)C4CCCN4)C(=O)C2C31)C1CCCN1 (stereo not drawn) | 43.6 µM
66 | Cc1ccccc1C(=O)N/N=C/c1ccc(Sc2nccn2C)c([N+](=O)[O-])c1 | > 100 µM
67 | CC(=O)C1=C(C)N(c2ccc(C)cc2)C2(O)C=CC(=O)C3C(=O)N(c4ccccc4)C(=O)C132 (stereo not drawn) | 18.4 µM
68 | COc1ccc2c(c1)[nH]c1c(/C=C/c3ccccc3)nccc12 | 54 µM
